From ChEMBL document CHEMBL1201862, “PubChem BioAssay data set” (2004) come the findings set out here.

Test [1] in a line: Luminescence Cell-Based Dose Confirmation HTS to Identify Activators of 5'UTR Stem-Loop Driven Alpha-Synuclein mRNA Translation in H4 Neuroglioblastoma Cells. [Related pubchem assays: 1829 (Project Summary), 1814 (Primary HTS)]. The class given is functional.
The nature of test [2]: Luminescence Cell-Based Dose Response HTS to Identify Activators of Luciferase Translation or Activity in H4 […] Cells. [Related pubchem assays: 1829 (Project Summary), 1814 (Primary HTS)]. The class given is functional.
The test system of test [3] is H4. Nature of the test: Luminescence Cell-Based Dose Response HTS to Identify Activators of 5'UTR Stem-Loop Driven Prion Protein mRNA Translation in H4 Neuroglioblastoma Cells. [Related pubchem assays: 1829 (Project Summary), 1814 (Primary HTS)]. The class given is functional. The conditions noted are these: Homo sapiens.
The nature of test [4]: Luminescence Cell-Based Dose Retest to Confirm Inhibitors of Cancer Stem Cells. [Related pubchem assays (depositor defined):AID2717, AID2721]. The conditions noted are these: Homo sapiens. The test is classed as functional, Homo sapiens.
For test [5], the system named is INS1. Kind of test: beta cell apoptosis inhibitors, cytokine rescue, dose response, luminescence, retest (AID 449756).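 Further: cell death triggered by IL-1 beta plus TNF-alpha plus IFN-gamma mixture; protective hits raise ATP signal compared with cytokine alone wells.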 The class given is functional, cell-based. The conditions noted are these: Rattus norvegicus.
For test [6], the target named is Paired box protein Pax-8 (Homo sapiens, UniProt Q06710). Nature of the test: inhibitors of PAX8-driven TPO luciferase reporter, dose response, RMG-I cells, cherry-pick (AID 687027).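 Further: luciferase reporter driven by Pax8 target thyroperoxidase promoter measured by SteadyGlo luminescence.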 The class given is functional, cell-based. In general terms: A reporter such as luciferase makes a cellular process visible.
Test [7] is described as follows: HEp-2 cell cytotoxicity, dose response, cytotoxicity control for RSV inhibitor project, HTS (AID 2410). The conditions noted are these: human respiratory syncytial virus. The test is classed as functional.
Test [8] concerns the target T1, Rac GTPase-activating protein 1 (Homo sapiens, UniProt Q9H0H5).
T1 sequence (Q9H0H5 whole entry): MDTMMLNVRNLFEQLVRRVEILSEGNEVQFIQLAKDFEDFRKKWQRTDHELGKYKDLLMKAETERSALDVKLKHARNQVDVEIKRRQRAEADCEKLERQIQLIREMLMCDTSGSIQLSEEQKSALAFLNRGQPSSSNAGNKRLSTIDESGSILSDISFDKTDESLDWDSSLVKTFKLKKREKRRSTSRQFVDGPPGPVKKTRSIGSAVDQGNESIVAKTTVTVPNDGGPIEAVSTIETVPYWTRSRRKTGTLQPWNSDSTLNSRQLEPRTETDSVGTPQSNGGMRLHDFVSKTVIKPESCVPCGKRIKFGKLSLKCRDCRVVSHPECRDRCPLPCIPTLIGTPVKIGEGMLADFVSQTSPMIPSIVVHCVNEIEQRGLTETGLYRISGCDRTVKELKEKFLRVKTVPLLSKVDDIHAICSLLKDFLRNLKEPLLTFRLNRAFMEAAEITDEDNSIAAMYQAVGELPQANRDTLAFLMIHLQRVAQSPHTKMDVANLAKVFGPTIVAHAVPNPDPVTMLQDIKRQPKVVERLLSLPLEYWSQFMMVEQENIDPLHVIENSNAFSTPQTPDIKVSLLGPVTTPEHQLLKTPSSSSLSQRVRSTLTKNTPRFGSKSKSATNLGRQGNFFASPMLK
Nature of the test: MgcRacGAP GTPase-activating activity inhibitors, confirmation, biochemical, ADP Hunter fluorescence, primary and confirmatory (AID 624330). The test is classed as functional.

Active and inactive are the calls of the source.

Sequence of Paired box protein Pax-8 (Q06710 whole entry): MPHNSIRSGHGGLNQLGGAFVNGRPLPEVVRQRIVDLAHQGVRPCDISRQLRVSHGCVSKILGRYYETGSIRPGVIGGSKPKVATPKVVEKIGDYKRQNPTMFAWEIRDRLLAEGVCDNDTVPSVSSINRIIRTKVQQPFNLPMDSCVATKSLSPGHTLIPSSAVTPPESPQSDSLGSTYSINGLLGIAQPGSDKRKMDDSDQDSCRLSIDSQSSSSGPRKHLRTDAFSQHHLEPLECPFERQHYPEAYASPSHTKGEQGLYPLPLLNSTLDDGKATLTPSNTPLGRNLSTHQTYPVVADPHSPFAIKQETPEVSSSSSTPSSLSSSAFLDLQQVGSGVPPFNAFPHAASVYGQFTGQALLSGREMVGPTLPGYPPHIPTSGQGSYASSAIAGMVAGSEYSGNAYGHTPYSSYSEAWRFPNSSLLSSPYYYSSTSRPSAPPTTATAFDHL

Turning to `COc1ccccc1NC(=O)Cn1c(CN2CCCCC2)nc2ccccc2c1=O`, the EC50 in test [1] was > 120 µM (not active); in test [2] it was > 120 µM (not active); in test [3], 37.8 µM (active).

In the case of `Cc1ccc(F)c([C@H]2C3C=CCC(c4ccccc4)C3C(=O)N2Cc2ccccc2)c1` (some centres not stated), the AC50 in test [4] is 3.71 µM (active); in test [5], 11 µM (active).

As for `O=C(c1ccc(F)cc1)N1C[C@@H]2N[C@H](C1)[C@@H]2c1ccc(-c2ccc(F)cc2)cc1`, in test [6], the AC50 is 18.3 µM (active).

Take `O=C(Nc1ccc(N2CCN(C(=O)c3ccc(Cl)cc3)CC2)cc1)c1cccnc1`: the AC50 in test [5] is 5.43 µM (active).

As for `Cc1cc2c(cc1C)CSC(c1ccccc1OC(=O)C(C)(C)C)SC2`, in test [7], the CC50 is 16.8 µM (active).

For `CCc1cc2c(=O)c(-c3ccc4c(c3)OCCO4)coc2cc1OC(=O)c1ccco1`, the CC50 in test [7] was 29.9 µM (active).

As to `Nc1cc(-c2ccc(Br)cc2)nn1S(=O)(=O)c1cccc2nsnc12`, the CC50 in test [7] was 11.2 µM (active).

For the compound `CCN1CCN(CCOc2cccc(Oc3ccccc3)c2)CC1`, the IC50 in test [8] was 106 µM (active).

In the case of `CC(=O)Nc1cccc(-n2nnc(SCC(=O)c3ccccc3)n2)c1`, the figures for the concentration giving a half-maximal response (EC50) in test [1], in test [2] and in test [3] were 10.5 µM (active), 19.8 µM (active) and 2.02 µM (active), respectively.

For `O=C(Nc1cccc(-c2cccc(Cl)c2)c1)C1CCN(Cc2ccc(CO)o2)CC1`, the CC50 in test [7] was 12.7 µM (active).

Regarding `O=C(NCCSc1ccccc1)c1ccco1`, the values for the EC50 in test [2] and in test [3] were > 120 µM (not active) and 15 µM (active), respectively.

Turning to `O=C(CSc1ncnc2sc3c(c12)CCCC3)c1ccccc1`, the EC50 in test [1] is 11.6 µM (active); in test [2] it was 9.61 µM (active); in test [3] it was 28.8 µM (active).

Take `C[C@@H]1CCCCO[C@H](CN(C)S(=O)(=O)c2ccc(Cl)cc2)[C@H](C)CN([C@@H](C)CO)C(=O)c2cc(N(C)C)ccc2O1`: the AC50 in test [6] was 8.81 µM (active).

On to `O=C(c1cc2ccccn2n1)N1CCN(Cc2ccccc2)CC1`, for which the EC50 in test [1] was 6.68 µM (active); in test [2] it was 24.1 µM (active); in test [3] it was 9.44 µM (active).

As to `Nc1nc2nc[nH]c2c(=S)[nH]1` [THIOGUANINE], in test [6], the AC50 is 1.18 µM (active).

In the case of `O=C(NCc1cccnc1)c1ccc([N+](=O)[O-])cc1`, in test [5], the AC50 was 3.6 µM (active).

`CC1CCN(C(C(=O)NC2CCCCC2)c2cc3c(cc2[N+](=O)[O-])OCO3)CC1` (configuration not stated): the EC50 in test [1] was > 120 µM (not active); in test [2] it was 25 µM (active); in test [3], 22.1 µM (active).

Regarding `COc1cccc(-c2nc(-c3ccc4c(c3)NC(=O)CO4)cs2)c1`, the figures for the EC50 in test [1], in test [2] and in test [3] were 17.7 µM (active), 22.7 µM (active) and 10.8 µM (active), respectively.

For `COc1ccc(OC(=O)COc2cccc(C)c2)cc1`, in test [8], the IC50 is 52.9 µM (active).

As to `COc1ccc(-c2cc(C(F)F)n3ncc(C(=O)N4CCc5ccccc5C4)c3n2)cc1`, in test [7], the CC50 is 28.3 µM (active).

With `Cc1ccc2nc3ccc(N4CCCC4)nn3c(=O)c2c1`, the EC50 in test [1] is 0.723 µM (active); in test [2], 0.558 µM (active); in test [3], > 120 µM (not active).

Regarding `COc1ccc(CN2CCN(Cc3ccccc3F)CC2)cc1OC`, the 50% inhibitory concentration (IC50) in test [8] was 85.5 µM (active).

For the compound `CN1C(=O)C(=Cc2c(OCc3cnc(Cl)s3)ccc3ccccc23)C(=O)N(C)C1=O`, the CC50 in test [7] is 20.3 µM (active).

With `c1ccc(Cn2c(-c3ccco3)nc3nc4ccccc4nc32)cc1`, the half-maximal effective concentration (EC50) is 11.6 µM (active) in test [1], 0.127 µM (inconclusive) in test [2] and > 120 µM (not active) in test [3].

`CSc1ccc(C2c3[nH]c4ccccc4c3CCN2C(=O)c2cc(C)n(C)n2)cc1` (configuration not stated): the figures for the EC50 in test [1], in test [2] and in test [3] were 14.2 µM (active), 17.1 µM (active) and 11.8 µM (active), respectively.

As to `Nc1ccc2[nH]c(-c3cccnc3)nc2c1`, the IC50 in test [8] was 155 µM (active).

For the compound `O=C(N/N=C/c1cc(Br)cs1)c1ccc2c(c1)OCCO2`, the EC50 in test [1] was 0.106 µM (active); in test [3] it was > 120 µM (not active).

With `CCCn1c(=N)c(C(=O)NC2CCCC2)cc2c(=O)n3cccc(C)c3nc21`, the half-maximal effective concentration (EC50) in test [1], in test [2] and in test [3] was > 120 µM (not active) each time.

Consider `Nc1ccc(C(=O)c2ccc3c(c2)OCCO3)cc1N`, for which the EC50 is 9.68 µM (active) in test [1], 8.7 µM (active) in test [2] and 21.2 µM (active) in test [3]. In addition, the IC50 in test [8] is 22.9 µM (active).

As to `COc1cc(/C=N/N2CCN(c3ccccc3OC)CC2)ccc1O`, the concentration for half-maximal inhibition (IC50) in test [8] is 36.7 µM (active).

Consider `Cc1cnc(NC(=O)CCc2ccccc2)s1`, for which the values for the EC50 in test [1], in test [2] and in test [3] were > 120 µM (not active), 16.6 µM (active) and 15.2 µM (active), respectively.

As to `COC1C(CO)OC(n2c3c(Cl)cccc3c3c4c(c5c6cccc(Cl)c6[nH]c5c32)C(=O)NC4=O)C(O)C1O` (configuration not stated), the AC50 in test [6] was 1.11 µM (active).

Consider `Cc1cc(C)c([N+](=O)[O-])cc1-c1ccc(/C=N/NC(=O)c2nonc2N)o1`, for which the CC50 in test [7] is > 50 µM (active).

Turning to `Cc1ccc(C(=O)NCCC(=O)N2CCCC2)cc1`, the results for the EC50 in test [1], in test [2] and in test [3] were 0.419 µM (active), 5.97 µM (active) and > 120 µM (not active), respectively.

In the case of `C[C@@H]1CCCCO[C@H](CN(C)Cc2ccc(C(F)(F)F)cc2)[C@H](C)CN([C@H](C)CO)C(=O)c2cc(NC(=O)Nc3ccc(F)cc3)ccc2O1`, the concentration at half-maximal activity (AC50) in test [6] was 10.7 µM (active).

As to `CCN(CC)c1ccc(/C=N/N2CCOCC2)c(O)c1`, the EC50 was 4.58 µM (active) in test [2] and 20 µM (active) in test [3]. Further, the IC50 in test [8] is 75.6 µM (active).

Consider `COc1ccc(C(=O)N2CCN(C3CCN(Cc4ccccc4)CC3)CC2)cc1OC`, for which the IC50 in test [8] was 93.1 µM (active).

For `O=[N+]([O-])c1cc(S(=O)(=O)/N=C(/c2ccccc2)N2CCOCC2)ccc1Cl`, the 50% effective concentration (EC50) in test [1] was 0.714 µM (active); in test [2] it was 14.6 µM (active).

With `O=c1cc(Cl)[nH]c(=O)n1CCNc1ncc(C(F)(F)F)cc1Cl`, the concentration for a half-maximal effect (EC50) in test [1] is 12.6 µM (active); in test [2] it was 5.68 µM (active); in test [3] it was 7.52 µM (active).

As to `Cc1ccc(-c2cn(-c3ccccc3)c(SCC(=O)NC3CCS(=O)(=O)C3)n2)cc1C` (configuration not stated), the EC50 in test [1] was 1.36 µM (active); in test [2], 8.74 µM (active); in test [3] it was 0.301 µM (active).

The term EC50 denotes the concentration giving half of the maximal effect. As usually defined, the AC50 is the concentration at which the activity in the assay is half-maximal. The term CC50 denotes the concentration that lowers cell viability or growth by half. By IC50 is commonly meant the concentration needed to halve the response being measured.
